Assay results: ChEMBL document CHEMBL1201862, “PubChem BioAssay data set” (2004)
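Growth conditions: 96-well plates. Treatment: test compound, 48 hours, 5 concentrations. Analysis: linear interpolation between bracketing concentrations; unreached endpoints set to highest concentration. GI50 marks 50% less growth.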 The source made the active and inactive calls. Cut-off read from the data, not from the text of the source: active = GI50 up to about 1.1 µM and inactive = higher.

What was measured:
Test in all cases: inhibition of tumour cell growth, NCI panel, 48 h
[1] = tested on: OVCAR-5
[2] = tested on: 786-0
[3] = tested on: RXF 393
[4] = tested on: SF-268
[5] = tested on: SNB-19
[6] = tested on: Malme-3M
[7] = tested on: HOP-92
[8] = tested on: SNB-75
[9] = tested on: NCI-H23
[10] = tested on: COLO 205
[11] = tested on: HCT-15
[12] = tested on: NCI/ADR-RES
[13] = tested on: Hs-578T
[14] = tested on: MCF7
[15] = tested on: A498
[16] = tested on: DU-145
[17] = tested on: ACHN
[18] = tested on: K562
[19] = tested on: CCRF-CEM

Compound	GI50 [1]	GI50 [2]	GI50 [3]	GI50 [4]	GI50 [5]	GI50 [6]	GI50 [7]	GI50 [8]	GI50 [9]	GI50 [10]	GI50 [11] [µM]	GI50 [12]	GI50 [13]	GI50 [14]	GI50 [15]	GI50 [16]	GI50 [17]	GI50 [18]	GI50 [19]
CCC(c1ccc2cc(O)ccc2c1)C(C)(C)C(=O)O (stereo not given)	> 100 µM (inactive)	> 100 µM (inactive)	> 100 µM (inactive)	> 100 µM (inactive)	> 100 µM (inactive)	> 100 µM (inactive)	> 100 µM (inactive)	> 100 µM (inactive)	> 100 µM (inactive)	> 100 µM (inactive)	> 100	> 100 µM (inactive)	> 100 µM (inactive)	> 100 µM (inactive)	> 100 µM (inactive)	> 100 µM (inactive)	> 100 µM (inactive)	> 100 µM (inactive)	
OC(C/C(=N\N1CCCCC1)c1cccs1)(C(F)(F)F)C(F)(F)F		> 10 µM (inactive)	> 10 µM (inactive)	> 10 µM (inactive)	> 10 µM (inactive)	> 10 µM (inactive)	> 10 µM (inactive)	> 10 µM (inactive)	> 10 µM (inactive)	> 10 µM (inactive)	> 10	> 10 µM (inactive)	> 10 µM (inactive)	> 10 µM (inactive)	> 10 µM (inactive)	> 10 µM (inactive)	> 10 µM (inactive)	> 10 µM (inactive)	> 10 µM (inactive)
N#C/C(=C\NC(=S)c1ccncc1)c1nc2ccccc2s1	> 100 µM (inactive)	> 100 µM (inactive)	> 100 µM (inactive)	> 100 µM (inactive)	> 100 µM (inactive)		> 100 µM (inactive)	68.1 µM (inactive)	51.2 µM (inactive)	> 100 µM (inactive)	> 100	> 100 µM (inactive)	> 100 µM (inactive)	76.9 µM (inactive)	> 100 µM (inactive)	> 100 µM (inactive)	> 100 µM (inactive)	> 100 µM (inactive)	
O=C1Nc2ccc(Br)cc2/C1=N/NC(=S)Nc1ccc([N+](=O)[O-])cc1	13.2 µM (inactive)	8.91 µM (inactive)	11.8 µM (inactive)	9.04 µM (inactive)		5.98 µM (inactive)	9.77 µM (inactive)	16 µM (inactive)	2.55 µM (inactive)	21.7 µM (inactive)	2.69	2.01 µM (inactive)	14.2 µM (inactive)	7.13 µM (inactive)	5.56 µM (inactive)	11.9 µM (inactive)	5.19 µM (inactive)	9.48 µM (inactive)	
CNC(=S)N/N=C(\C(=N/NC(=S)NC)c1ccccn1)c1ccccn1		5.71 µM (inactive)	5.07 µM (inactive)	1.19 µM (inactive)	10.3 µM (inactive)	4.73 µM (inactive)	15.2 µM (inactive)	20.8 µM (inactive)	9.12 µM (inactive)	1.41 µM (inactive)	0.232	< 0.02 µM (active)	5.38 µM (inactive)	< 0.0355 µM (active)	4.58 µM (inactive)	8.05 µM (inactive)	2.99 µM (inactive)	4.55 µM (inactive)	
OCCSCc1cc(Cl)cc(Cl)c1O	> 100 µM (inactive)	> 100 µM (inactive)	> 100 µM (inactive)	> 100 µM (inactive)	> 100 µM (inactive)	> 100 µM (inactive)	57.9 µM (inactive)		> 100 µM (inactive)	> 100 µM (inactive)	> 100	> 100 µM (inactive)	> 100 µM (inactive)	> 100 µM (inactive)	> 100 µM (inactive)	> 100 µM (inactive)	> 100 µM (inactive)	> 100 µM (inactive)	> 100 µM (inactive)
